Results on 4 molecules are retold here after patent publication US10350302B2, “Thymidine kinase diagnostic assay for gene therapy applications” (GenVivo, Inc., priority 2013, dated 2019).

Data set [1] in a line: [18F]FHBG whole body biodistribution by PET (FIG. 2). The class given is in vivo, human. An excerpt: FIG. 2 is whole body coronal images of [^18F]FHBG biodistribution in a healthy human subject at four distinct time periods after 4.53 mCi i.v. injection of the [^18F]FHBG.
In some embodiments, the clearance pattern in a subject determines the length of time delay for measuring background and determining, for example, [^18F]FHBG imaging activity. […] Accordingly, depending upon the organ and subject individual, some time may be required for background levels to decrease in order to measure HSV-TK gene expression. […] In these organ systems, a sufficient threshold for gene therapy suitability may be, for example, at least above 1.0 SUV, at least above 1.5 SUV, at least above 2.0 SUV, at least above 2.5 SUV, at least above 3.0 SUV, at least above 3.5 SUV or at least above 4.0 SUV.
In contrast, some delay may be needed in order to image signals above background levels in, for example, the liver and kidneys. See Yaghoubi et al. Nat. Protocols at vol. 1, p. 3073. Because of the background signals in these organ systems, a sufficient threshold for determination of suitability for gene therapy treatment may be, for example, at least 10% above background, at least 15% above background, at least 20% above background, at least 25% above background, at least 30% above background, at least 35% above background, at least 40% above background, at least 45% above background, at least 50% above background, at least 55% above background, at least 60% above background, at least 65% above background, at least 70% above background, at least 75% above background, at least 80% above background, at least 85% above background, at least 90% above background, at least 95% above background or at least 100% or more above background when measured after a predetermined amount of time. […] Accordingly, [^18F]FHBG signal measurements in the liver should not be taken until after [^18F]FHBG signal levels have decreased to background, approximately 1 to 1½ hours, depending upon clearance rate in each individual subject.

The subject of data set [2] is HSV-TK enzyme. The note with it: cited from earlier work.
Data set [3] relates to mammalian TK enzymes. The note with it: cited from earlier work.
Data set [4] relates to cells containing HSV-TK-m2. The note with it: published observations; cited from earlier work.
Data set [5] relates to cancer cells. Kind of data set: GCV mediated cancer cell kill assay after retroviral transduction. The note with it: following retroviral transduction delivery. The class given is cell-based.
From the text: […]

[6] abbreviates: healthy human subject, 45.3 minutes to 80.3 minutes.
Where [7] appears, read: healthy human subject, 83.3 minutes to 155.6 minutes.

Consider `Nc1nc2c(ncn2CCC(CO)C[18F])c(=O)[nH]1` (stereo not drawn) [[^18F]FHBG, 9-[4-[^18F]Fluoro-3-(hydroxymethyl)butyl]guanine], for which the “background [18F]FHBG signal in the heart and lungs” value in data set [1] (healthy human subject, 4.53 mCi i.v., after administration) is recorded as “virtually no background”. The “[18F]FHBG levels in the liver, kidneys and bladder” value in data set [1] (healthy human subject, 4.53 mCi i.v., between 7.6 and 42.6 minutes after administration) is recorded as “high”. Moreover, in data set [1] (setting [6]), the “[18F]FHBG levels in the liver and kidneys” value was “decreased significantly”; the “[18F]FHBG signal in the bladder” value is “persistent high signal”. Further, in data set [1] (setting [7]), the “[18F]FHBG levels in the liver and kidneys” value was “decreased even further”; the “[18F]FHBG signal in the bladder” value is given as “maintenance of high signal levels”. In addition, the “[18F]FHBG background in most tissues outside the lower abdomen” value in data set [1] (humans) is recorded as “rapidly decreases”. For the same molecule, the “affinity as substrate for HSV-TK enzyme” value in data set [2] is reported as “high affinity substrate”. Further, in data set [3], the “affinity for mammalian TK enzymes” value is listed as “relative low affinity”.

With `Nc1nc(O)c2ncn(COC(CO)CO)c2n1` [ganciclovir], in data set [4], the “duration of ganciclovir sufficient to kill the majority of cells containing HSV-TK-m2” value is 5 days.

B1: HSV-TK gene A168H and mutated at amino acids 159-161 from LIF to IFL: HSV-TK gene A168H also mutated at amino acids 159-161 from LIF to IFL (nucleic acid)
DNA: GTCAGCGGCCGCACCGGTACGCGTCCACCATGGCCAGCTACCCCGGCCACCAGCACGCCAGCGCCTTCGACCAGGCCGCCCGCAGCCGCGGCCACAGCAACGGCAGCACCGCACTGCGGCCACGGCGCCAGCAGGAGGCCACCGAGGTGCGCCCCGAGCAGAAGATGCCCACCCTGCTGCGCGTGTACATCGACGGACCACACGGCATGGGCAAGACCACCACCACCCAGCTGCTGGTGGCCCTGGGCAGCCGCGACGACATCGTGTACGTGCCCGAGCCCATGACCTACTGGCGCGTGCTGGGCGCCAGCGAGACCATCGCCAACATCTACACCACCCAGCACCGCCTGGACCAAGGCGAGATCAGCGCCGGCGACGCCGCCGTGGTGATGACCAGCGCCCAGATTACAATGGGCATGCCCTACGCCGTGACCGACGCCGTGCTGGCACCACACATCGGCGGCGAGGCCGGCAGCAGCCACGCACCACCACCAGCACTGACCATCTTCCTGGACCGGCACCCAATCGCACACCTGCTGTGCTACCCGGCAGCACGCTACCTGATGGGCTCCATGACACCACAAGCCGTGCTGGCCTTCGTGGCCCTGATCCCACCAACACTGCCCGGCACCAACATCGTGCTGGGCGCCCTGCCCGAGGACCGCCACATCGACCGCCTGGCCAAGCGCCAGCGCCCCGGCGAGCGCCTGGACCTGGCCATGCTGGCCGCCATCCGCCGCGTGTACGGCCTGCTGGCCAACACCGTGCGCTACCTGCAGTGCGGCGGCAGCTGGCGCGAGGACTGGGGCCAGCTGAGCGGCACCGCCGTGCCACCACAGGGCGCCGAGCCACAGAGCAACGCCGGACCACGACCACACATCGGCGACACCCTGTTCACCCTGTTCCGGGCACCAGAGCTGCTGGCACCAAACGGCGACCTGTACAACGTGTTCGCCTGGGCCCTGGACGTGCTGGCCAAGCGCCTGCGCTCCATGCACGTGTTCATCCTGGACTACGACCAGTCACCGGCCGGCTGCCGCGACGCCCTGCTGCAGCTGACCAGCGGCATGGTGCAGACCCACGTGACAACACCCGGCAGCATCCCAACAATCTGCGACCTGGCCCGCACCTTCGCCCGCGAGATGGGCGAGGCCAACTAATAGGGATCCCTCGAGAAGCTTGTCA
As for B1, the “GCV mediated cancer kill activity” value in data set [5] (ganciclovir (GCV) pro-drug) is “exhibited GCV mediated cancer cell kill activity”.

B2: SEQ ID NO: 18: optimized HSV-TK polynucleotide: A168H, nuclear export sequence, double mutated NLS, codon optimized, splice corrected (nucleic acid)
DNA: GTCAGCGGCCGCACCGGTACGCGTCCACCATGGCCCTGCAGAAAAAGCTGGAAGAGCTGGAACTGGATGGCAGCTACCCCGGCCACCAGCACGCCAGCGCCTTCGACCAGGCCGCCCGCAGCCGCGGCCACAGCAACGGCAGCACCGCACTGCGGCCAGGATCTCAGCAGGAGGCCACCGAGGTGCGCCCCGAGCAGAAGATGCCCACCCTGCTGCGCGTGTACATCGACGGACCACACGGCATGGGCAAGACCACCACCACCCAGCTGCTGGTGGCCCTGGGCAGCCGCGACGACATCGTGTACGTGCCCGAGCCCATGACCTACTGGCGCGTGCTGGGCGCCAGCGAGACCATCGCCAACATCTACACCACCCAGCACCGCCTGGACCAAGGCGAGATCAGCGCCGGCGACGCCGCCGTGGTGATGACCAGCGCCCAGATTACAATGGGCATGCCCTACGCCGTGACCGACGCCGTGCTGGCACCACACATCGGCGGCGAGGCCGGCAGCAGCCACGCACCACCACCAGCACTGACCCTGATCTTCGACCGGCACCCAATCGCACACCTGCTGTGCTACCCGGCAGCACGCTACCTGATGGGCTCCATGACACCACAAGCCGTGCTGGCCTTCGTGGCCCTGATCCCACCAACACTGCCCGGCACCAACATCGTGCTGGGCGCCCTGCCCGAGGACCGCCACATCGACCGCCTGGCCAAGCGCCAGCGCCCCGGCGAGCGCCTGGACCTGGCCATGCTGGCCGCCATCCGCCGCGTGTACGGCCTGCTGGCCAACACCGTGCGCTACCTGCAGTGCGGCGGCAGCTGGCGCGAGGACTGGGGCCAGCTGAGCGGCACCGCCGTGCCACCACAGGGCGCCGAGCCACAGAGCAACGCCGGACCACGACCACACATCGGCGACACCCTGTTCACCCTGTTCCGGGCACCAGAGCTGCTGGCACCAAACGGCGACCTGTACAACGTGTTCGCCTGGGCCCTGGACGTGCTGGCCAAGCGCCTGCGCTCCATGCACGTGTTCATCCTGGACTACGACCAGTCACCGGCCGGCTGCCGCGACGCCCTGCTGCAGCTGACCAGCGGCATGGTGCAGACCCACGTGACAACACCCGGCAGCATCCCAACAATCTGCGACCTGGCCCGCACCTTCGCCCGCGAGATGGGCGAGGCCAACTAATAGGGATCCCTCGAGAAGCTTGTCA
Consider B2, for which, in data set [5], the “pro-drug GCV enzyme activity and selectivity for ability to kill cancer cells” value is “exhibited pro-drug GCV enzyme activity and selectivity”.
